{
  "source": "patent US20100150930A1",
  "about": "“MAGE-11 AS A MARKER FOR ENDOMETRIAL RECEPTIVITY TO EMBRYO TRANSPLANTATION AND A MARKER AND THERAPEUTIC TARGET IN CASTRATION-RECURRENT PROSTATE CANCER” (The University of North Carolina at Chapel Hill, priority 2007, published 2010)",
  "key": {"MAGE-11 mRNA [1]": {"test_system": "MAGE-11 mRNA", "assay": "MAGE-11 mRNA by real-time PCR in ECC-1 cells", "assay_type": "cell-based, human", "conditions": "for change in MAGE-11 mRNA levels: 100 Units/ml hCG, 10 nM progesterone, 10 nM DHT or 10 ng/ml EGF", "experimental": "(§1) For MAGE-11 and AR mRNA in the human endometrial ECC-1 and Ishikawa cell lines, cells were passed 4 days prior to each experiment into medium without phenol red containing 5% charcoal stripped serum (Atlanta Biologicals, Lawrenceville, Ga.). […] RNA was extracted using RNeasy Plus Mini kit (Qiagen, Valencia, Calif.) and cDNA prepared from 4 μg total RNA as above. β-Glucuronidase (GusB) forward primer 5′-[…]-3′ (SEQ ID NO:4) and reverse primer 5′-[…]-3′ (SEQ ID NO:5) amplify a 65 by region coding for amino acid residues 120-140. The 5′-[…]-3′ (SEQ ID NO:6) GusB probe overlaps the exon 2 and 3 boundary. PCR was carried out in 20 μl reactions containing cDNA from 0.4 μg total RNA, 4 μl LightCycler TaqMan Master mix (Roche, Indianapolis, Ind.) and 0.5 μl 20× TaqMan Mix (Applied Biosystems, Foster City, Calif.) for AR or MAGE-11, or 0.5 μM primer and 0.2 μM probe for GusB. PCR reactions were 1 cycle at 95° C. for 10 min followed by 55 cycles of 95° C. for 15 sec, 60° C. for 25 sec and 72° C. for 1 sec in a Roche Lightcycler. […] Results were averaged from duplicates of 6 or 10 cm dishes of ECC-1 or Ishikawa cell cultures."}, "MAGE-11 mRNA [2]": {"test_system": "MAGE-11 mRNA", "assay": "MAGE-11 mRNA by real-time PCR in Ishikawa cells", "assay_type": "cell-based, human", "conditions": "for change in MAGE-11 mRNA levels: 100 Units/ml hCG, 10 nM progesterone, 10 nM DHT or 10 ng/ml EGF", "experimental": "as §1"}, "AR mRNA": {"test_system": "AR mRNA", "assay": "AR mRNA by real-time PCR in ECC-1 cells", "assay_type": "cell-based, human", "experimental": "as §1"}, "PR-B [3]": {"test_system": "PR-B", "assay": "PR immunoblot in ECC-1 cells", "assay_type": "cell-based, human", "conditions": "10 nM E2 for 48 h", "procedure": "(§2) Immunoblot analysis. MAGE-11, AR, PR and ERα protein levels in ECC-1 (2×10^6/6 cm dish) and Ishikawa cells (4×10^6/10 cm dish) were determined by immunoblot. Cells were plated in medium without phenol red containing 5% charcoal stripped serum after culturing in the same media for 4 days. Cells were treated, washed and harvested in cold phosphate buffered saline containing 1 mM dithiothreitol, 1 mM phenylmethylsulfonyl fluoride, 5 μg/ml leupeptin, 5 μg/ml pepstatin A and 5 μg/ml aprotinin, and solubilized in buffer containing 1% Triton X-100, 0.15 M NaCl, 0.5 mM EDTA, 1% sodium deoxycholate, 0.1% SDS, 50 mM Tris-HCl, pH 7.4 and protease inhibitors listed above. […] Protein concentration was determined by BioRad assay using bovine serum albumin as standard."}, "PR-B [4]": {"test_system": "PR-B", "assay": "PR immunoblot in Ishikawa cells", "assay_type": "cell-based, human", "conditions": "10 nM E2 for 48 h", "procedure": "as §2"}, "MAGE-11 protein": {"test_system": "MAGE-11 protein", "assay": "MAGE-11 immunoblot in Ishikawa cells", "assay_type": "cell-based, human", "conditions": "10 nM E2, 48 h", "procedure": "as §2"}, "MAGE-11 mRNA [5]": {"test_system": "MAGE-11 mRNA", "assay": "MAGE-11 mRNA by real time RT-PCR in LNCaP cells", "assay_type": "cell-based, human"}, "Flag-MAGE-11": {"test_system": "Flag-MAGE-11", "conditions": "COS cells, with wild-type AR, 2 and 10 nM DHT, 24 h"}},
  "data": [
    {"compound": "C[C@]12CC[C@@H]3c4ccc(O)cc4CC[C@H]3[C@@H]1CC[C@@H]2O", "note": "[E2, 17β-estradiol]", "values": [
      {"measurement": "time required for inhibitory effect on MAGE-11 mRNA", "setting": "MAGE-11 mRNA [1]; ECC-1 cells", "result": "more than 6 h"},
      {"measurement": "effect on increase in MAGE-11 mRNA levels during culture", "setting": "MAGE-11 mRNA [1]; ECC-1 cells, 0.01 nM E2, dose response, 48 h", "result": "partial inhibition"},
      {"measurement": "effect on increase in MAGE-11 mRNA levels during culture", "setting": "MAGE-11 mRNA [1]; ECC-1 cells, 10 nM E2, 72 h culture in phenol red-free, charcoal stripped serum medium", "result": "blocked"},
      {"measurement": "effect on cAMP induced increase in MAGE-11 mRNA", "setting": "MAGE-11 mRNA [1]; ECC-1 cells, 10 nM E2 with 2 mM dibutyryl-cAMP, greater extent than in Ishikawa cells", "result": "inhibited"},
      {"measurement": "concentration required to partially inhibit MAGE-11 expression relative to that required to increase AR expression (fold less)", "setting": "MAGE-11 mRNA [1]; endometrial cell lines", "result": "~100", "unit": "fold"},
      {"measurement": "effect on cAMP induced increase in MAGE-11 mRNA", "setting": "MAGE-11 mRNA [2]; 10 nM E2 with dibutyryl-cAMP, 48 h, lesser extent than in ECC-1 cells", "result": "inhibited"},
      {"measurement": "increase in AR mRNA levels", "setting": "AR mRNA; 10 nM E2", "result": "~3", "unit": "fold"},
      {"measurement": "E2 concentration required to increase AR mRNA", "setting": "AR mRNA; dose response, 48 h", "result": 1, "unit": "nM"},
      {"measurement": "effect on PR-B levels", "setting": "PR-B [3]", "result": "increased"},
      {"measurement": "effect on PR-B levels", "setting": "PR-B [4]", "result": "increased"},
      {"measurement": "effect on ~67 kDa MAGE-11 protein level", "setting": "MAGE-11 protein", "result": "declined"},
      {"measurement": "effect on cyclic-AMP induction of MAGE-11 mRNA", "setting": "MAGE-11 mRNA [5]", "result": "not inhibited"}
    ]},
    {"compound": "C[C@]12CC[C@@H]3c4ccc(O)cc4C[C@@H](CCCCCCCCC[S+]([O-])CCCC(F)(F)C(F)(F)F)[C@H]3[C@@H]1CC[C@@H]2O", "note": "(stereo partly shown) [ICI-182,780]", "values": [
      {"measurement": "effect on MAGE-11 mRNA levels", "setting": "MAGE-11 mRNA [1]; ECC-1 cells, 1 μM ICI-182,780 in the absence and presence of E2 (0.1 nM), 48 h", "result": "increased"},
      {"measurement": "effect on E2 induced increase in AR mRNA", "setting": "AR mRNA; 1 μM ICI-182,780", "result": "blocked"}
    ]},
    {"compound": "EGF: EGF growth factor, used at 10 ng/ml", "values": [
      {"measurement": "change in MAGE-11 mRNA levels", "setting": "MAGE-11 mRNA [1]; ECC-1 cells", "result": "unchanged"},
      {"measurement": "change in MAGE-11 mRNA levels", "setting": "MAGE-11 mRNA [2]", "result": "unchanged"}
    ]},
    {"compound": "C[C@]12CCC(=O)C[C@@H]1CC[C@@H]1[C@@H]2CC[C@]2(C)[C@@H](O)CC[C@@H]12", "note": "[DHT, dihydrotestosterone]", "values": [
      {"measurement": "change in MAGE-11 mRNA levels", "setting": "MAGE-11 mRNA [1]; ECC-1 cells", "result": "unchanged"},
      {"measurement": "change in MAGE-11 mRNA levels", "setting": "MAGE-11 mRNA [2]", "result": "unchanged"},
      {"measurement": "effect on MAGE-11 protein levels", "setting": "Flag-MAGE-11", "result": "declined"}
    ]},
    {"compound": "C=C[C@@]1(C)CC(=O)[C@]2(O)[C@@]3(C)[C@@H](O)CCC(C)(C)[C@@H]3[C@H](O)[C@H](OC(C)=O)[C@@]2(C)O1", "note": "[forskolin]", "values": [
      {"measurement": "increase in MAGE-11 mRNA levels", "setting": "MAGE-11 mRNA [1]; ECC-1 cells, 50 μM", "result": "~4", "unit": "fold"},
      {"measurement": "increase in MAGE-11 mRNA levels", "setting": "MAGE-11 mRNA [2]; 50 μM", "result": "~4", "unit": "fold"}
    ]},
    {"compound": "CC(=O)[C@H]1CC[C@H]2[C@@H]3CCC4=CC(=O)CC[C@]4(C)[C@H]3CC[C@]12C", "note": "[progesterone]", "values": [
      {"measurement": "MAGE-11 mRNA with progesterone after E2 pretreatment", "setting": "MAGE-11 mRNA [1]; ECC-1 cells, pretreatment with 10 nM E2 for 48 h (data not shown)", "result": "no increase"},
      {"measurement": "change in MAGE-11 mRNA levels", "setting": "MAGE-11 mRNA [1]; ECC-1 cells", "result": "unchanged"},
      {"measurement": "change in MAGE-11 mRNA levels", "setting": "MAGE-11 mRNA [2]", "result": "unchanged"},
      {"measurement": "MAGE-11 mRNA with progesterone after E2 pretreatment", "setting": "MAGE-11 mRNA [2]; pretreatment with 10 nM E2 for 48 h (data not shown)", "result": "no increase"}
    ]}
  ]
}
